From patent publication US10617118B2, “Low foam surfactant composition and methods of making the same” (Momentive Performance Materials Inc., priority 2015, dated 2020)

Columns and labels:
[1] = test system: Velvetleaf (Abutilion theophrasti); assay: Effect of adjuvant on glyphosate-IPA efficacy on velvetleaf (spray application); assay type: in vivo; conditions: 1.0 wt % Gly-IPA, adjuvant 0.1 wt %, 100 L/ha, simulated rain 2 hours after treatment, visual scale of 0-100%
Description: Velvetleaf plants were grown from seed indoor, under full sunlight intensity lamps, in individual pots, and then thinned to one plant per pot. Plants were fertilized as necessary (NPK 20-20-20). Glyphosate spray applications were applied when the plants reached the 3-4 true leaf stage.
Velvetleaf was treated with 1.0 wt % Gly-IPA, with and without adjuvant, at a spray volume equivalent to 100 L/ha. When adjuvant was used, it was included in the spray at 0.1 wt %. Applications were made using a track sprayer with a TeeJet 8002 nozzle. Simulated rain (2.5 cm) was applied 2 hours after treatment. Glyphosate efficacy was determined 7 and 14 days after treatment (DAT). using a visual scale of 0-100%, where 0 indicates no effect and 100 indicates total weed control.

[2] = Spreading: spread diameter of 10 μL drop on polystyrene Petri-dish; assay type: physicochemical; conditions: Table 11, after 30 seconds
Description: Spreading was determined using between 0.1% and 0.4% (actives) surfactant. Solutions were prepared in Milli-Pore water (deionized) where a 10 μL drop was placed on a polystyrene surface (Petri-dish) and the spread diameter, in mm is determined after 30 seconds.

Row | Compound | Glyphosate-IPA efficacy on velvetleaf, 7 DAT ([1]; 7 DAT) [%] | Glyphosate-IPA efficacy on velvetleaf, 14 DAT ([1]; 14 DAT) [%] | Spread Diameter (mm) 0.2 Wt % [2] [mm]
1 | CC(C)N.O=C(O)CNCP(=O)(O)O [None, glyphosate-isopropylamine] | 33 | 37 | 
2 | Triton X-100 |  |  | 7
